The source of these data is ChEMBL document CHEMBL1152060, “Pentamidine congeners 1: Synthesis of Cis- and Trans-butamidine analogues as anti-Pneumocystis carinii pneumonia agents” (1993).

The test system of experiment [1] is Rattus norvegicus. Briefly: In vivo toxicity […] at intravenous dosage of 10.0 mg/kg/day in rat. The format is functional.
For experiment [2], the system named is Rattus norvegicus. Briefly: Anti-Pneumocystis carinii Pneumonia activity at intravenous dosage of 10.0 mg/kg/day in rat. It counts as functional.

Turning to `N=C(N)c1ccc(OC/C=C\COc2ccc(C(=N)N)cc2)cc1`, the Toxicity with Rattus norvegicus [1] is on record as 0. The molecule further came in with a Control in the experiment with Rattus norvegicus [2] of 1.3%.
The corresponding values for `N=C(N)c1ccc(OCCCCCOc2ccc(C(=N)N)cc2)cc1` [PENTAMIDINE] are 2 and 4.5%.
The corresponding values for `C(=C\COc1ccc(C2=NCCN2)cc1)/COc1ccc(C2=NCCN2)cc1` are 0 and 1.5%.
In turn, `N=C(N)c1ccc(OC/C=C/COc2ccc(C(=N)N)cc2)cc1` gave a Toxicity with Rattus norvegicus [1] of 0. Moreover, the Control in the experiment on Rattus norvegicus [2] is given as 0.8%.
The corresponding values for `C(=C/COc1ccc(C2=NCCN2)cc1)/COc1ccc(C2=NCCN2)cc1` are 0 and 1.4%.
